Key:
[1] = system: Mytilus edulis gill tissue; assay: Protein expression changes in gill tissue by 2D electrophoresis after 24 h exposure
Procedure: Gill tissue previously flash frozen in liquid nitrogen was mechanically homogenized in cold buffer containing phenyl-methylsulfonyl fluoride and dithiothreotol (PMSF and DTT, protease inhibitors). Cellular debris was removed by centrifugation (13000×g for 5 min). Total protein concentration of the supernatant containing the soluble protein fraction was determined using the Bradford method.
Spots on each gel were detected and compared using Medical Electrophoresis Analysis Interactive Expert System (MELANIE II™) 2D analysis software (Biorad). […] Those spots detectable on the treatment composites only were considered present. Each spot of interest, present or absent, on the treatment composites was identified on all original gels from a treatment group before being considered part of the protein expression signature.

[2] = system: Mytilus edulis; assay: Protein expression signature by 2D electrophoresis of whole body homogenate after 7 day exposure
Procedure: Protein expression signatures, including those proteins induced and those proteins suppressed by exposure, were isolated for each treatment group.
Eight blue mussels Mytilus edulis 2-3 cm in size were collected from a natural population 3M deep. Ambient salinity and temperature were a salinity of 6.3 ppt and a temperature of 7° C. The mussels were put in tanks for acclimation for 24 hours at the same temperature and salinity as collection. […] Water was changed every other day and continuously aerated. At the end of the 7 day exposure, mussels were removed from the shell and flash frozen in liquid nitrogen before being freeze dried for later analysis.
Freeze dried whole body tissue was mechanically homogenized in cold buffer containing phenyl-methylsulfonyl fluoride and dithiothreotol (PMSF and DTT, protease inhibitors) and tris buffer pH 5.5. After mechanical homogenization, samples were boiled to further break down cells, and cellular debris was removed by centrifugation (13000×g for 5 min). Total protein concentration was determined using methods based on the Bradford method (Biorad).
The supernatant containing the soluble protein fraction was separated using two dimensional electrophoresis (Biorad Miniprotean II™). […] Gels from each treatment were compared for changes in pattern and key components using Medical Electrophoresis Analysis Interactive Expert System (MELANIE II™) 2D analysis software (Biorad) and data compiled using a database developed by this laboratory. Composite gels were produced from each treatment set and compared to one another. Proteins uniquely present (induced (expressed)) or absent (suppressed) in each treatment were identified. Those present or absent in all the original component gels were included in the protein expression signature (PES) for each treatment.

[3] = 20, 40, 60, 80 ppb CuSO4, 24 hrs
[4] = 7 days exposure, 70 ppb copper, 1 ppb Aroclor 1248, whole body
[5] = signature proteins also found with 70 ppb copper combined with lowered salinity (3 ppt), 7 days

SMILES | Protein spots absent at all treatment levels compared to controls [1, 3] [spots] | Protein spots present at all treatment levels compared to controls [1, 3] [protein spots] | Key Protein Changes (number of key proteins present and absent specifically) ([1]; 20 ppb CuSO4, 24 hrs, gill tissue) | Number of proteins specifically absent at a single dosage level ([1]; 20 ppb, 24 hrs) [protein spots] | Key Protein Changes (number of key proteins present and absent specifically) ([1]; 40 ppb CuSO4, 24 hrs, gill tissue) | Key Protein Changes (number of key proteins present and absent specifically) ([1]; 60 ppb CuSO4, 24 hrs, gill tissue) | Key Protein Changes (number of key proteins present and absent specifically) ([1]; 80 ppb CuSO4, 24 hrs, gill tissue) | Number of proteins specifically absent at a single dosage level ([1]; 80 ppb, 24 hrs) [protein spots] | Key Protein Changes (number of key proteins present and absent) ([1]; All Dosages (20, 40, 60, 80 ppb CuSO4), 24 hrs, gill tissue) | Proteins of the signature identified in organisms treated with copper and lowered salinity simultaneously ([2]; 70 ppb copper plus salinity 3 ppt, 7 days) | Protein expression signature (induced and suppressed), number of proteins ([2]; 7 days exposure, 70 ppb copper, 1 ppb Aroclor 1248) [proteins] | Unique Induction: number of proteins specifically induced (present) [2, 4] [proteins] | Unique Suppression: number of proteins specifically suppressed (absent) [2, 4] [proteins] | Copper/Salinity shared signal, induced proteins [2, 5] [proteins] | Copper/Salinity shared signal, suppressed proteins [2, 5] [proteins]
O=S(=O)([O-])[O-].[Cu+2] [CuSO4, copper sulfate] | 2 | 11 | 27 | 14 | 14 | 19 | 10 | 6 | 13 | – | – | – | – | – | –
[Cu] [Copper, copper] | – | – | – | – | – | – | – | – | – | Five | 23 | 13 | 10 | 3 | 2

Reference: patent publication US6653135B1, “Dynamic protein signature assay” (University of Maryland, priority 2000, dated 2003)
